US20100215620A1, “THE CO-CULTURE METHOD OF SPHINGOMONAS SP. BACTERIAL STRAIN AND ASPERGILLUS SP. FUNGUS STRAIN, NEW ANTI-CANCER AND ANTIBIOTIC GLIONITRINS DERIVED FROM THIS CO-CULTURE METHOD, AND PHARMACEUTICAL COMPOSITION CONTAINING GLIONITRINS OR PHARMACEUTICALLY ACCEPTABLE SALT THEREOF AS AN ACTIVE INGREDIENT” (KOREA INSTITUTE OF SCIENCE AND TECHNOLOGY, priority 2007, published 2010)
In brackets after ≈: the same amount, converted by molar mass. Where two headings read alike, the source gives them in different places.

Legend:
[1] = tested on: Aspergillus fumigatus HIC 6094; assay: Antifungal MIC, Sabouraud glucose liquid medium; assay type: cell-based
From the text: (§1) The present inventors also evaluated antifungal activity of glionitrins A and B against those strains distributed from American Type Culture Collection (ATCC, Manassas, Va., USA) such as Aspergillus fumigatus HIC 6094 and Trichophyton rubrum IFO 9185. […] To determine MIC of glionitrin for those two fungus strains, spores of the fungus strains were suspended in sterilized distilled water at the density of 10^5 spores/mL and the density was adjusted by using Sabouraud glucose liquid medium (Difco) to 10^3 cells/mL. Then, the cells were distributed in a 96-well plate at the density of 10^2 cells/100 μl/well, to which glionitrin was added at different concentrations, followed by culture at 28° C. for […]. The concentration of glionitrin at which no fungi growth was confirmed was determined as MIC.

[2] = tested on: Trichophyton rubrum IFO 9185; assay: Antifungal MIC, Sabouraud glucose liquid medium; assay type: cell-based
From the text: as §1

[3] = tested on: Bacillus subtilis ATCC 6633 [G(+)]; assay: Antibacterial MIC, broth dilution, OD600; assay type: cell-based
Description: (§2) The present inventors also investigated antibacterial effect of glionitrin A and glionitrin B using Micrococcus leuteus IFC 12708, Bacillus subtilis ATCC 6633, Proteus vulgaris ATCC 3851, Salmonella typhimurium ATCC 1 4028 and 3 MRSA strains, Staphylococcus aureus ATCC 43300, S. aureus ATCC 700787 and S. aureus ATCC 700788 distributed from American Type Culture Collection (ATCC, Manassas, Va., USA). […] Then, the medium was eliminated and 100 μl of medium containing 10^5 cfu/mL of each strain was loaded in each well of a 96-well plate. Glionitrin diluted at different concentrations was added thereto, followed by culture at 37° C. for 24 hours. 24 hours later, OD600 was measured.

[4] = tested on: S. aureus ATCC 700788(MRSA); assay: Antibacterial MIC, broth dilution, OD600; assay type: cell-based; details: Staphylococcus aureus
Description: as §2

[5] = tested on: Staphylococcu aureus ATCC 4330(MRSA); assay: Antibacterial MIC, broth dilution, OD600; assay type: cell-based; details: Staphylococcus aureus, 24 h
Description: as §2

[6] = tested on: Proteus vulgaris ATCC 3851[G(−)]; assay: Antibacterial MIC, broth dilution, OD600; assay type: cell-based
Description: as §2

[7] = tested on: Salmonella typhimurium ATCC 14028[G(−)]; assay: Antibacterial MIC, broth dilution, OD600; assay type: cell-based; details: Salmonella enterica
Description: as §2

[8] = tested on: S. aureus ATCC 700787(MRSA); assay: Antibacterial MIC, broth dilution, OD600; assay type: cell-based; details: Staphylococcus aureus, 24 h
Description: as §2

[9] = tested on: Micrococus leuteus IFC 12708[G(+)]; assay: Antibacterial MIC, broth dilution, OD600; assay type: cell-based, Micrococcus leuteus; details: Micrococcus
Description: as §2

[10] = Stability of glionitrin A in solution at room temperature; assay type: physicochemical; details: water, acetonitrile aqueous solution, methanol aqueous solution or DMSO
From the text: The chemical structures of the separated compounds were identified by using MS and nuclear spectrometer. As a result, it was confirmed that glionitrin A was amorphous light yellow powder represented by the molecular formula of C13H11N3O5S2 which had the molecular weight of 353, and glionitrin B was colorless mucous semi-solid material represented by the molecular formula of C15H17N3O5S2 which had the molecular weight of 383.
The present inventors performed instrumental analysis with glionitrins to determine the chemical formulas of glionitrin A and glionitrin B. The separated glionitrin A was left in water or DMAO at room temperature. […] Glionitrin A was measured in chloroform-d solvent and glionitrin B was measured in methanol-d4 solvent.

4 non-resistant strains = assay: Antibacterial MIC; assay type: cell-based
Description: as §2

MCF-7 = assay: In vitro MTT cytotoxicity assay; assay type: cell-based; details: Homo sapiens, MCF7
[11] = tested on: AGS (stomach cancer, ATCC CRL-1739); assay: In vitro MTT cytotoxicity assay; assay type: cell-based; details: 24 h
Description: (§3) The present inventors investigated cytotoxic effect of glionitrin on cancer cells with in vitro MTT (3-[4,5-dimethylthiazol-2-yl]-2,5-diphenyltrazdium bromide) assay to quantify live cancer cells. Cancer cell cytotoxicity of glionitrin was evaluated using AGS (stomach cancer, ATCC CRL-1739™), HepG2 (liver cancer, HB-8065™), HCT116 (colon cancer, CCL-247™), A549 (lung cancer, CCL-185™) and DU145 (prostatic cancer, HTB-81™) distributed from American Type Culture Collection (ATCC, Manassas, Va., USA). Stomach cancer (AGS), liver cancer (HepG2), colon cancer (HCT-116), lung cancer (A549) or prostatic cancer (DU-145) cells were distributed in a 96-well plate at the density of 1×10^4 cells/100 μl/well, followed by culture in a 37° C., CO2 incubator for 24 hours. Then, the medium was replaced with a fresh one containing glionitrin, followed by culture at 37° C. 24 hours later, MTT solution was added thereto by 10 μl/well, followed by further culture for 1 hour at 37° C. One hour later, formazane generated by reductase in live cells was quantified by measuring OD450.

[12] = tested on: A549 (lung cancer, CCL-185); assay: In vitro MTT cytotoxicity assay; assay type: cell-based; details: Homo sapiens, A549, 24 h
Description: as §3

[13] = tested on: HepG2 (liver cancer, HB-8065); assay: In vitro MTT cytotoxicity assay; assay type: cell-based; details: Homo sapiens, HepG2, 24 h
Description: as §3

[14] = tested on: DU-145 (prostatic cancer, HTB-81); assay: In vitro MTT cytotoxicity assay; assay type: cell-based; details: Homo sapiens, DU-145, 24 h
Description: as §3

[15] = tested on: HCT-116 (colon cancer, CCL-247); assay: In vitro MTT cytotoxicity assay; assay type: cell-based; details: Homo sapiens, HCT-116, 24 h
Description: as §3

3 MRSA strains = assay: Antibacterial MIC; assay type: cell-based, Staphylococcus aureus; details: against 3 MRSA strains
Description: as §2

[16] = tested on: Aspergillus fumigatus HIC 6094 and Trichophyton rubrum IFO 9185; assay: Antifungal MIC; assay type: cell-based
From the text: as §1

7 bacterial strains = assay: Antibacterial activity, text summary for the 7 bacterial strains; assay type: cell-based; details: every experimental group (7 bacterial strains)
Description: as §2

[17] = ATCC6633, Bacillus subtilis ATCC 6633, 37° C., 24 hours, read-out: MIC
[18] = ATCC3851, Proteus vulgaris ATCC 3851, 37° C., 24 hours, read-out: MIC
[19] = Salmonella typhimurium ATCC 14028, 37° C., 24 hours, read-out: MIC
[20] = Micrococus leuteus IFC 12708, 37° C., 24 hours, read-out: MIC

C[C@@H]1[C@H](O)[C@@H](C)/C=C/C=C/C=C/C=C/C=C/C=C/C=C/[C@H](O[C@@H]2O[C@H](C)[C@@H](O)[C@H](N)[C@@H]2O)C[C@@H]2O[C@](O)(C[C@@H](O)C[C@@H](O)[C@H](O)CC[C@@H](O)C[C@@H](O)CC(=O)O[C@H]1C)C[C@H](O)[C@H]2C(=O)O [amphotericin B, reference compound]
MIC ([1]; Aspergillus fumigatus HIC 6094, 28° C.): 1.56 µg/mL (≈ 1.69 µM) | MIC ([2]; Trichophyton rubrum IFO 9185, 28° C.): 1.56 µg/mL (≈ 1.69 µM)

CC1(C)S[C@@H]2[C@H](NC(=O)[C@H](N)c3ccccc3)C(=O)N2[C@H]1C(=O)O [ampicillin, reference compound]
MIC [3, 17]: 3.13 µg/mL (≈ 8.96 µM) | MIC ([4]; S. aureus ATCC 700788 (MRSA), 37° C., 24 hours, read-out: MIC): 25 µg/mL (≈ 71.5 µM) | MIC [5]: 12.5 µg/mL (≈ 35.8 µM) | MIC [6, 18]: 1.56 µg/mL (≈ 4.46 µM) | MIC [7, 19]: 12.5 µg/mL (≈ 35.8 µM) | MIC [8]: 12.5 µg/mL (≈ 35.8 µM) | MIC [9, 20]: 0.78 µg/mL (≈ 2.23 µM)

CN1C(=O)C23Cc4ccc([N+](=O)[O-])cc4N2C(=O)C1(CO)SS3 (stereo not shown) [glionitrin A]
MIC ([3]; Bacillus subtilis, ATCC6633, 24 h): 6.25 µg/mL (≈ 17.7 µM) | MIC ([4]; 24 h): 0.78 µg/mL (≈ 2.21 µM) | MIC [5]: 0.78 µg/mL (≈ 2.21 µM) | MIC ([6]; Proteus vulgaris, ATCC3851, 24 h): 3.13 µg/mL (≈ 8.86 µM) | MIC ([7]; 24 h): 3.13 µg/mL (≈ 8.86 µM) | MIC [8]: 0.78 µg/mL (≈ 2.21 µM) | stability in solution [10]: trisulfide (glionitrin C) and tetrasulfide (glionitrin D) were generated | MIC (4 non-resistant strains): 0.78 to 3.13 µg/mL (≈ 2.21 to 8.86 µM) | MIC ([9]; 24 h): 0.78 µg/mL (≈ 2.21 µM) | IC50 (MCF-7): > 2 µM | IC50 [11]: 0.45 ± 0.11 µM | IC50 [12]: 0.55 ± 0.07 µM | IC50 [13]: 2.28 ± 0.3 µM | IC50 [14]: 0.24 ± 0.02 µM | IC50 [15]: 0.82 ± 0.11 µM | MIC ([1]; Aspergillus fumigatus, HIC6094): 12.5 µg/mL (≈ 35.4 µM) | MIC ([2]; Trichophyton rubrum, IFO9185): 12.5 µg/mL (≈ 35.4 µM) | MIC (3 MRSA strains; Staphylococcus aureus): 0.78 µg/mL (≈ 2.21 µM) | antibacterial activity relative to ampicillin (3 MRSA strains; versus positive control ampicillin): 15 times | MIC ([16]; read-out: MIC (antifungal activity)): 12.5 µg/mL (≈ 35.4 µM)

CSC1(CO)C(=O)N2c3cc([N+](=O)[O-])ccc3CC2(SC)C(=O)N1C (stereo not shown) [glionitrin B]
MIC [3, 17]: > 100 µg/mL | MIC ([4]; 24 h): > 50 µg/mL | MIC [5]: > 50 µg/mL | MIC [6, 18]: > 50 µg/mL | MIC [7, 19]: > 50 µg/mL | MIC [8]: > 50 µg/mL | antibacterial activity (7 bacterial strains): no antibacterial activity at all | MIC [9, 20]: > 100 µg/mL | IC50 (MCF-7; MCF-7, MTT, read-out: IC50): > 2 µM | IC50 ([11]; AGS, MTT, read-out: IC50): 1.25 ± 0.2 µM | IC50 ([12]; MTT, read-out: IC50): 2.25 ± 0.25 µM | IC50 ([13]; MTT, read-out: IC50): > 2 µM | IC50 ([14]; MTT, read-out: IC50): 2.29 ± 0.14 µM | IC50 ([15]; MTT, read-out: IC50): 3.28 ± 0.55 µM | MIC ([1]; HIC6094, Aspergillus fumigatus HIC 6094, 28° C., read-out: MIC): > 50 µg/mL | MIC ([2]; IFO9185, Trichophyton rubrum IFO 9185, 28° C., read-out: MIC): > 50 µg/mL | antifungal activity ([16]; Aspergillus fumigatus HIC 6094 and Trichophyton rubrum IFO 9185): did not show antifungal activity
